Data as given in paper PMC10999543, “Identification of kinase modulators as host-directed therapeutics against intracellular methicillin-resistant Staphylococcus aureus” (Frontiers in Cellular and Infection Microbiology, 2024).
Like-named read-outs stand apart in the source and are kept apart here.

How the values were obtained:
[1] = tested on: intracellular MRSA; type: cell-based, Staphylococcus aureus; details: for z-scoreMRSA+ mean: mean of 3 replicates; for z-scoreMRSA+ rep 1 / %GFP+ rep 1: replicate 1; for z-scoreMRSA+ rep 2 / %GFP+ rep 2: replicate 2; for z-scoreMRSA+ rep 3 / %GFP+ rep 3: replicate 3; as to %GFP+ rep 1: test concentration or dose not given here; as to %GFP+ rep 2: test concentration or dose not given here; as to %GFP+ rep 3: test concentration or dose not given here; as to effect: test concentration or dose not given here; as to z-scoreMRSA+ mean: test concentration or dose not given here; as to z-scoreMRSA+ rep 1: test concentration or dose not given here; as to z-scoreMRSA+ rep 2: test concentration or dose not given here; as to z-scoreMRSA+ rep 3: test concentration or dose not given here
How it was run: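 Values are z-scores: GFP-positive HeLa percentage and event count per well against plate statistics, minus the mean DMSO z-score. Wells deviating two-fold from controls were left out of plate means. Infection was at a mean MOI of 6.8, with an overnight compound exposure.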

[2] = tested on: HeLa cells; assay: Compound screen by flow cytometry: HeLa cell count as surrogate readout of cell viability (z-scoreHeLa); type: cell-based, human; details: for z-scoreHeLa mean: mean of 3 replicates; for z-scoreHeLa rep 1 / cell count rep 1: replicate 1; for z-scoreHeLa rep 2 / cell count rep 2: replicate 2; for z-scoreHeLa rep 3 / cell count rep 3: replicate 3; as to all read-outs here: test concentration or dose not given here
How it was run: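 The viability surrogate was the count of fixed HeLa cells by flow cytometry, converted to z-scores against DMSO controls with values deviating two-fold excluded. Before counting, cells had been infected with MRSA for 1 h and cleared of extracellular bacteria with gentamicin. They were then exposed overnight to kinase inhibitors in triplicate.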

[3] = PKIS compound screen, Yes/No call
[4] = PKIS compound screen, Yes/No call (effect without cell death)
[5] = PKIS compounds raw data, MRSA-infected HeLa cells
[6] = PKIS compounds raw data, HeLa cell count
[7] = PKIS compound screen raw data, MRSA-infected HeLa cells
[8] = Yes/No: effect without cell death
[9] = compound screen, MRSA-infected HeLa cells
[10] = PKIS compound screen raw data, HeLa cell count
[11] = compound screen, HeLa cell count

| Compound | effect [1, 3] | hit [1, 4] | z-scoreMRSA+ mean ([1]; PKIS compound screen) | %GFP+ rep 1 [1, 5] [%] | %GFP+ rep 2 [1, 5] [%] | %GFP+ rep 3 [1, 5] [%] | cell count rep 1 [2, 6] | cell count rep 2 [2, 6] | cell count rep 3 [2, 6] | effect ([1]; Yes/No call from z-scoreMRSA+) | hit [1, 8] | z-scoreMRSA+ mean [1, 9] | z-scoreMRSA+ rep 1 [1, 9] | z-scoreMRSA+ rep 2 [1, 9] | z-scoreMRSA+ rep 3 [1, 9] | cell death ([2]; Yes/No call from z-scoreHeLa) | z-scoreHeLa mean [2, 11] | z-scoreHeLa rep 1 [2, 11] | z-scoreHeLa rep 2 [2, 11] | z-scoreHeLa rep 3 [2, 11] | further results |
| --- | --- | --- | --- | --- | --- | --- | --- | --- | --- | --- | --- | --- | --- | --- | --- | --- | --- | --- | --- | --- | --- |
| Cn1cc(-c2ccc3c(c2)CCN3C(=O)Cc2ccccc2Cl)c2c(N)ncnc21 [GSK2608885A] | No | No | 0.34 | 27.6 | 29.0 | 29.1 | 5830 | 6021 | 5398 |  |  |  |  |  |  |  |  |  |  |  | z-scoreMRSA+ rep 1 ([1]; PKIS compound screen): 0.11; z-scoreMRSA+ rep 2 ([1]; PKIS compound screen): 0.57; z-scoreMRSA+ rep 3 ([1]; PKIS compound screen): 0.34; cell death [2, 3]: No; z-scoreHeLa mean ([2]; PKIS compound screen): -0.08; z-scoreHeLa rep 1 ([2]; PKIS compound screen): -0.13; z-scoreHeLa rep 2 ([2]; PKIS compound screen): 0.00891; z-scoreHeLa rep 3 ([2]; PKIS compound screen): -0.13 |
| COc1cccc(CC(=O)N2CCc3cc(-c4cn(C)c5ncnc(N)c45)ccc32)c1 [GSK2608899A] |  |  |  |  |  |  |  |  |  | No | No | 0.49 | 0.31 | 0.70 | 0.45 | No | -1.14 | -0.91 | -1.24 | -1.27 | %GFP+ rep 1 [1, 7]: 26.6%; %GFP+ rep 2 [1, 7]: 25.5%; %GFP+ rep 3 [1, 7]: 23.7%; cell count rep 1 [2, 10]: 3096; cell count rep 2 [2, 10]: 2695; cell count rep 3 [2, 10]: 3225 |
| Cn1cc(-c2ccc3c(c2)CCN3C(=O)Cc2cc(F)cc(F)c2F)c2c(N)ncnc21 [GSK2634140A] |  |  |  |  |  |  |  |  |  | No | No | 0.60 | 0.17 | 0.99 | 0.63 | No | -1.47 | -1.44 | -1.35 | -1.61 | %GFP+ rep 1 [1, 7]: 26.0%; %GFP+ rep 2 [1, 7]: 26.7%; %GFP+ rep 3 [1, 7]: 24.3%; cell count rep 1 [2, 10]: 2359; cell count rep 2 [2, 10]: 2548; cell count rep 3 [2, 10]: 2693 |
| Cn1cc(-c2ccc3c(c2)CCN3C(=O)Cc2cc(F)cc(C(F)(F)F)c2)c2c(N)ncnc21 [GSK2635225A] |  |  |  |  |  |  |  |  |  | No | No | -0.39 | -0.62 | 0.07 | -0.63 | No | -0.02 | 0.31 | -0.0088 | -0.36 | %GFP+ rep 1 [1, 7]: 22.6%; %GFP+ rep 2 [1, 7]: 22.9%; %GFP+ rep 3 [1, 7]: 20.1%; cell count rep 1 [2, 10]: 4783; cell count rep 2 [2, 10]: 4290; cell count rep 3 [2, 10]: 4665 |
| c1ccc(Cn2ncc3cc(Nc4ncnc5ccccc45)ccc32)cc1 [GW273749A] | No | No | 0.17 | 26.5 | 27.8 | 28.8 | 9337 | 8148 | 8467 |  |  |  |  |  |  |  |  |  |  |  | z-scoreMRSA+ rep 1 ([1]; PKIS compound screen): -0.11; z-scoreMRSA+ rep 2 ([1]; PKIS compound screen): 0.34; z-scoreMRSA+ rep 3 ([1]; PKIS compound screen): 0.28; cell death [2, 3]: No; z-scoreHeLa mean ([2]; PKIS compound screen): 1.74; z-scoreHeLa rep 1 ([2]; PKIS compound screen): 1.98; z-scoreHeLa rep 2 ([2]; PKIS compound screen): 1.42; z-scoreHeLa rep 3 ([2]; PKIS compound screen): 1.82 |
| Cc1ccc2c(c1)C(=NNc1ccc(S(N)(=O)=O)cc1)C(=O)N2 [GW275944X] |  |  |  | 14.2 | 14.3 | 12.8 | 3417 | 4418 | 6627 | No | No | -0.10 | 0.33 | 0.27 | -0.91 | No | -0.43 | -1.23 | 0.11 | -0.16 |  |
| CS(=O)(=O)Nc1ccc(N/C=C2\C(=O)Nc3ccccc32)cc1 [GW278681X] |  |  |  | 11.9 | 13.7 | 12.4 | 4258 | 4720 | 6630 | No | No | -0.46 | -0.41 | 0.07 | -1.03 | No | -0.10 | -0.47 | 0.34 | -0.16 |  |
| Cc1cc(Cl)cc2c1NC(=O)C2=NNc1ccc(S(N)(=O)=O)cc1 [GW279320X] | No | No | 4.85 | 28.1 | 30.5 | 29.7 | 5783 | 6163 | 10033 |  |  |  |  |  |  |  |  |  |  |  | z-scoreMRSA+ rep 1 ([1]; PKIS compound screen): 4.78; z-scoreMRSA+ rep 2 ([1]; PKIS compound screen): 5.69; z-scoreMRSA+ rep 3 ([1]; PKIS compound screen): 4.09; cell death [2, 3]: No; z-scoreHeLa mean ([2]; PKIS compound screen): 1.27; z-scoreHeLa rep 1 ([2]; PKIS compound screen): 0.91; z-scoreHeLa rep 2 ([2]; PKIS compound screen): 1.43; z-scoreHeLa rep 3 ([2]; PKIS compound screen): 1.47 |
| NS(=O)(=O)c1ccc(N/N=C2\C(=O)Nc3ccc(Cl)cc32)cc1 [GW280670X] | No | No | 6.79 | 35.3 | 49.2 | 20.4 | 4621 | 4629 | 7741 |  |  |  |  |  |  |  |  |  |  |  | z-scoreMRSA+ rep 1 ([1]; PKIS compound screen): 7.09; z-scoreMRSA+ rep 2 ([1]; PKIS compound screen): 11.94; z-scoreMRSA+ rep 3 ([1]; PKIS compound screen): 1.34; cell death [2, 3]: No; z-scoreHeLa mean ([2]; PKIS compound screen): 0.17; z-scoreHeLa rep 1 ([2]; PKIS compound screen): -0.14; z-scoreHeLa rep 2 ([2]; PKIS compound screen): 0.27; z-scoreHeLa rep 3 ([2]; PKIS compound screen): 0.37 |
